# Earlier results, collected in patent publication US20240415829A1, “METHODS AND COMPOSITIONS FOR THE TREATMENT OF DRUG OVERDOSE” (priority 2023, published 2024).
# Legend:
# [1] = human clinical trials
# [2] = xylazine 0.15 mg/kg, sheep 58-69 kg
# [3] = results from other studies; individuals with OUD, tobacco use disorder, AUD
SMILES,adverse effects leading to termination of human trials [1],"sedation, respiration, blood pressure and heart rate effects [2]",doses supported for safe use in humans [3]
Cc1cccc(C)c1NC1=NCCCS1 [xylazine],severe hypotension and central nervous system (CNS) depressant effects,significant sedation/decreased respiration and decreased blood pressure/heart rate,–
COC(=O)[C@@H]1[C@H]2C[C@H]3c4[nH]c5ccccc5c4CCN3C[C@@H]2CC[C@@H]1O [yohimbine],–,–,up to 60 mg
